# Reference: US20250127912A1, “COMPOSITIONS FOR DELIVERY OF POLYNUCLEOTIDES” (miRecule, Inc., priority 2021, published 2025)
# No end group written: not given here. PEG1000 = N-terminal 1 kDa PEG spacer; PEG5000 = N-terminal 5 kDa PEG spacer; PEG2000 = PEG polymer of 2000 Da
# Legend:
# [1] = Serum stability of miRNA mimic M30m3 alone or with cationic peptide/hybrid polymer in 5% human serum (TBE-urea gel); settings: calculated based on first order decay comparing two time points; for Serum Stability at N/P1: M30m3 with polymer at N/P charge ratio 1, 37 C; for Serum Stability at N/P2: M30m3 with polymer at N/P charge ratio 2, 37 C
# Protocol: miRNA mimic M30m3 alone or with a cationic peptide or a hybrid polymer at N/P charge ratios of 1 or 2 were incubated with 5% human serum at 37° C. and samples were collected at t=0, 1 hr, 4 hrs, 20 hrs and 24 hrs (1 day). Upon collection, samples were mixed with sample loading buffer containing urea, bromophenol blue, xylene cylanol and nuclease inhibitor. Samples were then reduced, heated to 95° C. for 30 minutes, run on a TBE-urea gel and then stained for oligo using sybergold.
# miRNA mimic M30m3 alone or with a cationic peptide or a hybrid polymer at N/P charge ratios of 1 or 2 were incubated with 5% human serum at 37° C. and samples were collected t=0 hr, 1 hr, 4 hrs, 8 hrs and 18 hrs (ns=no serum). Upon collection, samples were mixed with sample loading buffer containing urea, bromophenol blue, xylene cylanol and nuclease inhibitor. Samples were then reduced, heated to 95° C. for 30 minutes, run on a TBE-urea gel and then stained for oligo using sybergold.
# miRNA mimic M30m3 alone or with a cationic peptide or a hybrid polymer at N/P charge ratios of 1 or 2 were incubated with 5% human serum at 37° C. and samples were collected at t=0 hr, 5 hrs, and 30 hrs (ns=no serum). Upon collection, samples were mixed with sample loading buffer containing urea, bromophenol blue, xylene cylanol and nuclease inhibitor. Samples were then reduced, heated to 95° C. for 30 minutes, run on a TBE-urea gel and then stained for oligo using sybergold.
# miRNA mimic M30m3 alone or with a cationic peptide or a hybrid polymer at N/P charge ratios of 1 or 2 were incubated with 5% human serum at 37° C. and samples were collected at t=0 hr, 4 hrs, and 24 hrs. Upon collection, samples were mixed with sample loading buffer containing urea, bromophenol blue, xylene cylanol and nuclease inhibitor. Samples were then reduced, heated to 95° C. for 30 minutes, run on a TBE-urea gel and then stained for oligo using sybergold.
# [2] = Biodistribution of IR750-NCD5 cetuximab conjugates in mice with orthotopic UM-SCC-1^luc tumors; settings: 5 mg/kg IR750-NCD5 cetuximab conjugate, N/P of 1; 24 and 48 hours
Compound,Serum Stability at N/P1 [1] [h],Serum Stability at N/P2 [1] [h],delivery to the tumor (IR-750 fluorescence) [2],liver and kidney delivery (IR-750 fluorescence) [2]
RRRRRRRRRRRR-[NHS Ester-BranchedPEG2kda] [PolyArg12bp2kDa],19.96,19.2,,
[PEG12]RdRdRdRdRdRdRdRdRdRdRdRd (RRRRRRRRRRRR; N-terminal PEG12; D-arginines; MOD_RES 1 N-terminal PEG12 spacer; MOD_RES 1..12 D-Arginine) [PEG12PolyArg12{d}],57.63,90.35,,
N=C(N)NCCC[C@H](NC(=O)[C@H](CCCNC(=N)N)NC(=O)[C@H](CCCNC(=N)N)NC(=O)[C@H](CCCNC(=N)N)NC(=O)[C@H](CCCNC(=N)N)NC(=O)[C@H](CCCNC(=N)N)NC(=O)[C@H](CCCNC(=N)N)NC(=O)[C@H](CCCNC(=N)N)NC(=O)[C@H](CCCNC(=N)N)NC(=O)[C@H](CCCNC(=N)N)NC(=O)[C@H](CCCNC(=N)N)NC(=O)[C@H](CCCNC(=N)N)NC(=O)[C@@H](N)CS)C(=O)N[C@@H](CS)C(=O)O [CPolyArg12C],34.91,18.1,,
TTTTTTRRRRRRRRRRRR [T6PolyArg12],25.6,18.06,,
RTRRTRRTRRTRRTRRTR [PolyArg12Tinsert],19.21,16.9,,
[PEG12][PEG12]RRRRRRRRRRRR (N-terminal PEG24; MOD_RES 1 N-terminal PEG24 spacer) [PEP24PolyArg12],21.21,39.41,,
"N=C(N)NCCCCN [Agmatine, reference compound]",20.78,17.33,,
"N=C(N)NCCC[C@H](N)C(=O)O [Arginine, reference compound]",7.179,12.26,,
N=C(N)NCCC[C@H](NC(=O)[C@H](CCCNC(=N)N)NC(=O)[C@H](CCCNC(=N)N)NC(=O)[C@H](CCCNC(=N)N)NC(=O)[C@H](CCCNC(=N)N)NC(=O)[C@H](CCCNC(=N)N)NC(=O)[C@H](CCCNC(=N)N)NC(=O)[C@H](CCCNC(=N)N)NC(=O)[C@H](CCCNC(=N)N)NC(=O)[C@H](CCCNC(=N)N)NC(=O)[C@H](CCCNC(=N)N)NC(=O)[C@@H](N)CCCNC(=N)N)C(=O)N[C@@H](CS)C(=O)O [PolyArg12C],25.99,31.12,,
[PEG2000]-RRRRRRRRRRRR (PEG2000-RRRRRRRRRRRR) [PEG2000DaPolyArg12],15,46.67,,
[PEG1000]-RRRRRRRRRRRR (PEG1000-RRRRRRRRRRRR) [PEG1000DaPolyArg12],33.58,20.29,,
[PEG12]RdRdRdRdRdRdRdRdRd [PEG12PolyArg9d],24.7,29.03,,
"M048 Alone: miR-30 mimic duplex M30m3 without polymer; guide SEQ ID NO: 38, passenger SEQ ID NO: 39 (guide UGUAAACAUCCUGCGACUGGAAG; sense UCCAGUCGAGGAUGUUUACA; modified_base 11 cm; modified_base 14 cm; modified_base 17 cm; modified_base 12 um; modified_base 18 um; modified_base 13 gm; modified_base 15 gm; modified_base 19 gm; modified_base 23 gm; modified_base 16 OTHER; 2'-O-methyladenosine; modified_base 22 OTHER; 2'-fluoroadenosine; misc_feature 21..22 phosphorothioate linkage; misc_feature 22..23 phosphorothioate linkage; misc_feature 1 amino C6 linker; modified_base 1 um; modified_base 2 cm; modified_base 3 cm; modified_base 19 cm; modified_base 18 OTHER; modified_base 20 OTHER)",21.57,,,
[PEG12]RRRRRRRRRRRR (N-terminal PEG12; MOD_RES 1 N-terminal PEG12 spacer) [PEG12PolyArg12],,,markedly improves delivery to the tumor,reduces liver and kidney delivery
[PEG5000]-RRRRRRRRRRRR (PEG5000-RRRRRRRRRRRR) [PEG5000DaPolyArg12],14.08,20.91,,
[PEG12]RRRRRR [PEG12PolyArg6],19.74,27.96,,
"NC(N)=NCCC[C@H](NC(=O)[C@H](CCCN=C(N)N)NC(=O)[C@H](CCCN=C(N)N)NC(=O)[C@H](CCCN=C(N)N)NC(=O)[C@H](CCCN=C(N)N)NC(=O)[C@@H](N)CCCN=C(N)N)C(=O)O [PolyArg6, RRRRRR]",26.74,22.23,,
"NCCCNCCCCNCCCN [Spermine, reference compound]",18.95,12.98,,
